Reference: patent US10800791B2, “Triazole ACC inhibitors and uses thereof” (Gilead Apollo, LLC, priority 2015, dated 2020)
Values after ≈ are worked out from the molar mass of the structure shown. Read-outs that look alike come from different tables or passages of the source.

Legend:
[1] = biological target: human (hACC2) (Homo sapiens, UniProt O00763); test: In vitro ACC inhibition assay (ADP-Glo), hACC2; type: biochemical; conditions: 5 nM ACC2, 20 μM ATP, 20 μM acetyl-CoA
Experimental: The detailed procedure is as follows. […] 10 μL ADP glo reagent was added. […] 20 μL kinase detection reagent was added.

[2] = tested on: C. krusei; test: Antifungal Activity Assay (broth microtiter MIC), C. krusei; type: cell-based, Candida krusei; conditions: Pichia kudriavzevii, ATCC6258, 48 h
In short: (§1)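 CLSI M27-A3 microdilution; RPMI 1640+MOPS; 2.5×10^3 CFU/mL final inoculum; cultures from Sabouraud dextrose agar, 35° C overnight; compound working solution 128 μg/mL from 1 mg/mL DMSO stock; visual MIC at 48 h vs growth control.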

[3] = tested on: C. parapsilosis; test: Antifungal Activity Assay (broth microtiter MIC), C. parapsilosis; type: cell-based, Candida parapsilosis; conditions: Lodderomyces parapsilosis, ATCC22019, 48 h
In short: as §1

[4] = tested on: Botrtyis cinerea (Bc); test: Growth inhibition assay of fungal pathogens, Bc; type: cell-based; conditions: 48 h
In short: (§2)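 Spore suspension in 17% V8 liquid media; cpd final 50/10/2 or 2/0.4/0.08 ppm, 2% DMSO. OD600 + visual, 24 & 48 h; % inhibition at 48 h vs 2% DMSO ctrl.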

[5] = tested on: Fusarium moniliforme (Fm); test: Growth inhibition assay of fungal pathogens, Fm; type: cell-based; conditions: for IC90: Fusarium verticillioides, 48 h, read-out: Concentration at 90% Inhibition Fm
In short: as §2

[6] = tested on: Fusarium virguliforme (Fv); test: Growth inhibition assay of fungal pathogens, Fv; type: cell-based; conditions: 48 h
In short: as §2

[7] = tested on: Phytophthora capsici (Pc); test: Growth inhibition assay of fungal pathogens, Pc; type: cell-based; conditions: 48 h
In short: as §2

[8] = tested on: Rhizoctonia solani (Rs); test: Growth inhibition assay of fungal pathogens, Rs; type: cell-based; conditions: 48 h
[9] = tested on: Septoria tritici (St); test: Growth inhibition assay of fungal pathogens, St; type: cell-based; conditions: Zymoseptoria tritici, 48 h
In short: as §2

[10] = biological target: fungal (fACC2) (UniProt Q00955); conditions: read-out: fACC2 (in vitro ACC2 Inhibition Assay, IC50), ADP-Glo, 5 nM ACC2, 20 μM ATP, 20 μM acetyl-CoA
Sequence of fungal (fACC2) (Q00955 whole entry): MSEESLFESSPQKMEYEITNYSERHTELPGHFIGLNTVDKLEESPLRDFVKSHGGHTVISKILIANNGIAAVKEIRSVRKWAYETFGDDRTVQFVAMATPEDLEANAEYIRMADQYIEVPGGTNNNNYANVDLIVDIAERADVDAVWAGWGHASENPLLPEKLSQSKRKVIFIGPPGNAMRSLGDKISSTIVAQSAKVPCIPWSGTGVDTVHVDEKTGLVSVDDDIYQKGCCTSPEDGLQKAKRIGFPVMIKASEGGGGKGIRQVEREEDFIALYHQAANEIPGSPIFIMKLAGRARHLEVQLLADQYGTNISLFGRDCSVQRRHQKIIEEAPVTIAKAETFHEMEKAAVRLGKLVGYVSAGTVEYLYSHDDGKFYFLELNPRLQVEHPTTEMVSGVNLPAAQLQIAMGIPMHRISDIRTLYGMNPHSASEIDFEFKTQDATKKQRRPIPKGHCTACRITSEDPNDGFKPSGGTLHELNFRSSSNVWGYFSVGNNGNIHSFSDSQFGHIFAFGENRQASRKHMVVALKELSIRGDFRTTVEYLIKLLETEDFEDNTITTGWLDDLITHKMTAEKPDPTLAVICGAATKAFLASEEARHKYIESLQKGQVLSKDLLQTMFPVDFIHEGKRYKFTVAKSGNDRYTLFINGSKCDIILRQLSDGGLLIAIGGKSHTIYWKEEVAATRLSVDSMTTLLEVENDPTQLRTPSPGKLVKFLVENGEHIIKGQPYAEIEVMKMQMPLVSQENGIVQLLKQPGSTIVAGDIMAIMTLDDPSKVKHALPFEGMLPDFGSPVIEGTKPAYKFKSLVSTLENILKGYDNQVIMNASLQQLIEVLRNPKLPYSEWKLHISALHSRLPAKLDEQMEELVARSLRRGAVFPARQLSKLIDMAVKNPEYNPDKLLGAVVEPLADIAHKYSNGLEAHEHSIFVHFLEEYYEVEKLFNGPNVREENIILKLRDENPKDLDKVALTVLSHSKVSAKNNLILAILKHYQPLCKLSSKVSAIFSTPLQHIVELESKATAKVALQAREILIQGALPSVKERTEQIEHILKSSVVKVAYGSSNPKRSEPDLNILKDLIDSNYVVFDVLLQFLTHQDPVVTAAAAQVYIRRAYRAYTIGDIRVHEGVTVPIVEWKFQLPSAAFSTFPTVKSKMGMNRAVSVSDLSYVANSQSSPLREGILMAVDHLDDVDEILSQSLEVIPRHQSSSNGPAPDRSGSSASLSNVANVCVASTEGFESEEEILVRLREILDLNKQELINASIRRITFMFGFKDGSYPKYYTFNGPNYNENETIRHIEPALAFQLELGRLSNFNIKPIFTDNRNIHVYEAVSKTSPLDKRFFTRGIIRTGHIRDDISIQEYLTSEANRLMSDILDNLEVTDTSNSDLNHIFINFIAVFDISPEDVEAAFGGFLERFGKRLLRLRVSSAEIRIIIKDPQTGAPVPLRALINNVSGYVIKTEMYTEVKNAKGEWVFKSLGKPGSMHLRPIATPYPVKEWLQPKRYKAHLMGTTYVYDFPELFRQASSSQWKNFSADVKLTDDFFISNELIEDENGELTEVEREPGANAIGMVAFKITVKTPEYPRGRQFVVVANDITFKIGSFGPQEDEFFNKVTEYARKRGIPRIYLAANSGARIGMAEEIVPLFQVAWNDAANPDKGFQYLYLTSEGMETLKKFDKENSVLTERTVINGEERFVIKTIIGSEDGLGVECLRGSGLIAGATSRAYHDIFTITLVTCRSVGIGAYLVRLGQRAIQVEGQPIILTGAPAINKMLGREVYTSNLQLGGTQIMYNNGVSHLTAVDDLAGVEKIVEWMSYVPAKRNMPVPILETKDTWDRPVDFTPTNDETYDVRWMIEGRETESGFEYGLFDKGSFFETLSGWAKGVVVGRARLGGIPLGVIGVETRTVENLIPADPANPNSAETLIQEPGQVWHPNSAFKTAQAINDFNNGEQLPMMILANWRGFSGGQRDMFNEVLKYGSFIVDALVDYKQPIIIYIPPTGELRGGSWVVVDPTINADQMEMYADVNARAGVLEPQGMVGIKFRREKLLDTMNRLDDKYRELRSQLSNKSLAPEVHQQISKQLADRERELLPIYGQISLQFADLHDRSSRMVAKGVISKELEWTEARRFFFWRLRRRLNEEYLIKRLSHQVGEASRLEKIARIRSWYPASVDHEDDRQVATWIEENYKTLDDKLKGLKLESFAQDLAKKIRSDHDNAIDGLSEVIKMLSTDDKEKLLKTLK

[11] = read-out: MIC, C. krusei ATCC 6258, Table 3a, 3 replicates, MIC recorded at 48 h
[12] = read-out: MIC, C. krusei ATCC 6258, Table 3b (additional results), 3 replicates, MIC recorded at 48 h
[13] = read-out: MIC, C. parapsilosis ATCC 22019, Table 3a, 3 replicates, MIC recorded at 48 h
[14] = read-out: MIC, C. parapsilosis ATCC 22019, Table 3b (additional results), 3 replicates, MIC recorded at 48 h
[15] = read-out: Concentration at 90% Inhibition Bc, Botrtyis cinerea, growth inhibition at 48 hours vs 2% DMSO control
[16] = read-out: Concentration at 90% Inhibition Bc, Botrtyis cinerea, growth inhibition vs 2% DMSO control at 48 hours
[17] = Fusarium moniliforme, growth inhibition at 48 hours vs 2% DMSO control
[18] = read-out: Concentration at 90% Inhibition Fv, Fusarium virguliforme, growth inhibition at 48 hours vs 2% DMSO control
[19] = read-out: Concentration at 90% Inhibition Fv, Fusarium virguliforme, growth inhibition vs 2% DMSO control at 48 hours
[20] = read-out: Concentration at 90% Inhibition Pc, Phytophthora capsici, growth inhibition at 48 hours vs 2% DMSO control
[21] = read-out: Concentration at 90% Inhibition Pc, Phytophthora capsici, growth inhibition vs 2% DMSO control at 48 hours
[22] = read-out: Concentration at 90% Inhibition Rs, Rhizoctonia solani, mycelial plugs, growth inhibition at 48 hours vs 2% DMSO control
[23] = read-out: Concentration at 90% Inhibition Rs, Rhizoctonia solani, mycelial plugs, growth inhibition vs 2% DMSO control at 48 hours
[24] = read-out: Concentration at 90% Inhibition St, Septoria tritici, growth inhibition at 48 hours vs 2% DMSO control
[25] = read-out: Concentration at 90% Inhibition St, Septoria tritici, growth inhibition vs 2% DMSO control at 48 hours

Sequence of human (hACC2) (O00763 whole entry): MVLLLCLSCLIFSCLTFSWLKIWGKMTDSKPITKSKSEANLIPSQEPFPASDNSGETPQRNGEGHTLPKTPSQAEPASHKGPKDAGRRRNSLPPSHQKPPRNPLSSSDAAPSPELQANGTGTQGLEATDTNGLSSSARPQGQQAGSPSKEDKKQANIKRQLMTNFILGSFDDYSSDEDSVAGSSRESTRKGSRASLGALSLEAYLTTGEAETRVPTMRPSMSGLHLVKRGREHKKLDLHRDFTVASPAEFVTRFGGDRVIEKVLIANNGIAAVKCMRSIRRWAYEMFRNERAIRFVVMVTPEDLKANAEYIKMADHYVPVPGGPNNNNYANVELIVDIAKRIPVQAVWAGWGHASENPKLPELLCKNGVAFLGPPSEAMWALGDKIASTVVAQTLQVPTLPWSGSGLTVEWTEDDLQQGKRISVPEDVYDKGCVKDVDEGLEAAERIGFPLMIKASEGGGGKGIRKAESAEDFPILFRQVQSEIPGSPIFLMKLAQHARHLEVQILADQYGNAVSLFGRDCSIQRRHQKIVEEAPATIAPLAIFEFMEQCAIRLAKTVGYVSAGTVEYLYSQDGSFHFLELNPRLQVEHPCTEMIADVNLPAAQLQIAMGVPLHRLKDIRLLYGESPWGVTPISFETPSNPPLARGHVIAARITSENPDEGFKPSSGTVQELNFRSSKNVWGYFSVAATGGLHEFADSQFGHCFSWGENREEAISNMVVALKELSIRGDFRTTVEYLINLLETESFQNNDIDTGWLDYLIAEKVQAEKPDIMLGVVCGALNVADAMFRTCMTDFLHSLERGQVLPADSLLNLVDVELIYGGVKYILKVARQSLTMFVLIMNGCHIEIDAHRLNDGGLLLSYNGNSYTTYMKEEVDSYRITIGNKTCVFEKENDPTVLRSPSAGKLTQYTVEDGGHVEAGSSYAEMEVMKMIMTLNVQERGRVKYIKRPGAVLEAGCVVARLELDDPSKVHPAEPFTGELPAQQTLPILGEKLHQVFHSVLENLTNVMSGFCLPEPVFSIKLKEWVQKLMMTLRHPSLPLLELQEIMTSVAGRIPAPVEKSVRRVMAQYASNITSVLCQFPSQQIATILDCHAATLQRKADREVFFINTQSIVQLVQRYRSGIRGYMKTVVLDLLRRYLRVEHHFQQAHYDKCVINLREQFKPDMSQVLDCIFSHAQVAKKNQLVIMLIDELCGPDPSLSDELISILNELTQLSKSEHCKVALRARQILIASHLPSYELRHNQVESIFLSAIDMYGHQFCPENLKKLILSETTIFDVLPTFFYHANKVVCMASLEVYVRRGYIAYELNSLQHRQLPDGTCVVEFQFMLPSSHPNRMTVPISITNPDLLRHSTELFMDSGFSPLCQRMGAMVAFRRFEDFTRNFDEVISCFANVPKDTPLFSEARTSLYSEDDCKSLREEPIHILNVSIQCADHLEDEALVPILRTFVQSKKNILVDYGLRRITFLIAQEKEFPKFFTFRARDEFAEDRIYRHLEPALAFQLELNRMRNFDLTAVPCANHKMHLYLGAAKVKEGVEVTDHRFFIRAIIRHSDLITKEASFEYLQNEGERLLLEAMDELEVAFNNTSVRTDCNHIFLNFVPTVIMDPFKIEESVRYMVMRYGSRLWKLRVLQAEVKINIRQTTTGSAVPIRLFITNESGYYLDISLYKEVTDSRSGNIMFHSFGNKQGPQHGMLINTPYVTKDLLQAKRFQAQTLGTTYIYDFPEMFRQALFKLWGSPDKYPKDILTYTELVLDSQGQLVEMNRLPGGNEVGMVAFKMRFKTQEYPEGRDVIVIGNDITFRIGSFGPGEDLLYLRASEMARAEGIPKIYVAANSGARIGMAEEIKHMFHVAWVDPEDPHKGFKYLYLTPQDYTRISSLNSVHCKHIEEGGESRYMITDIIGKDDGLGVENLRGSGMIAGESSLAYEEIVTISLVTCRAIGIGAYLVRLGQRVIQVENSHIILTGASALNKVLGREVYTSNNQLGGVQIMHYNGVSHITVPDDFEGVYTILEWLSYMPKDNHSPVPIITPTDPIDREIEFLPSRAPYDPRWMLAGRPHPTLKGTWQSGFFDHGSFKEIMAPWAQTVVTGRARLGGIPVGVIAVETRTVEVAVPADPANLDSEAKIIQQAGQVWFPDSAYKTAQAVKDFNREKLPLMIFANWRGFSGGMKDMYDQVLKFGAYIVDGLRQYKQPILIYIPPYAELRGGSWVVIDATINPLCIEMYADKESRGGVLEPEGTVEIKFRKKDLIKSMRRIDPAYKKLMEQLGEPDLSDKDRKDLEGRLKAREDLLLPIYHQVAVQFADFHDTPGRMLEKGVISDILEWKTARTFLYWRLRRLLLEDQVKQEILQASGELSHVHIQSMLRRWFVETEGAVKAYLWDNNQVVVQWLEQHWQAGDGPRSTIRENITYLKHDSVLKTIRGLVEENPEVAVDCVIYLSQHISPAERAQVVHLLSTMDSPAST

Structure (SMILES) | IC50 ([1]; Table 2a) [nM] | IC50 ([1]; Table 2b, additional results) [nM] | MIC [2, 11] [µg/mL] | MIC [2, 12] [µg/mL] | MIC [3, 13] [µg/mL] | MIC [3, 14] [µg/mL] | IC90 [4, 15] [µg/mL] | IC90 [4, 16] [µg/mL] | Concentration at 90% Inhibition Fm [5, 17] | IC90 [5] [µg/mL] | IC90 [6, 18] [µg/mL] | IC90 [6, 19] [µg/mL] | IC90 [7, 20] [µg/mL] | IC90 [7, 21] [µg/mL] | IC90 [8, 22] [µg/mL] | IC90 [8, 23] [µg/mL] | IC90 [9, 24] [µg/mL] | IC90 [9, 25] [µg/mL] | IC50 ([10]; Table 2a) [nM] | IC50 ([10]; Table 2b, additional results) [nM] | also measured
COc1ccc(F)cc1[C@H](Cn1c(=O)n(C(C)(C)C(=O)NC(C)C)c(=O)c2c(C)c(-n3nccn3)sc21)OCCO [Compound I-43, (R)-2-(1-(2-(5-fluoro-2-methoxyphenyl)-2-(2-hydroxyethoxy)ethyl)-5-methyl-2,4-dioxo-6-(2H-1,2,3-triazol-2-yl)-1,4-dihydrothieno[2,3-d]pyrimidin-3(2H)-yl)-N-isopropyl-2-methylpropanamide] | 5 to 10 | 5 to 10 | 0.25 to 1 (≈ 0.425 to 1.7 µM) | 0.25 to 1 (≈ 0.425 to 1.7 µM) | 0.25 to 1 (≈ 0.425 to 1.7 µM) | 0.25 to 1 (≈ 0.425 to 1.7 µM) | 2 (≈ 3.4 µM) | 2 (≈ 3.4 µM) | AA (compound concentration of 0.08 ppm at 90% inhibition of fungal pathogens) | 0.08 (≈ 0.136 µM) | 0.4 (≈ 0.68 µM) | 0.4 (≈ 0.68 µM) | 2 (≈ 3.4 µM) | 10 (≈ 17 µM) | 0.08 (≈ 0.136 µM) | 0.08 (≈ 0.136 µM) | 2 (≈ 3.4 µM) | 10 (≈ 17 µM) | 0.4 to 1 | 0.3 to 1 | 
COc1ccc(F)cc1[C@H](Cn1c(=O)n(C(C)(C)C(=O)N2CCCC2)c(=O)c2c(C)c(-n3nccn3)sc21)OCCO [Compound I-44, (R)-1-(2-(5-fluoro-2-methoxyphenyl)-2-(2-hydroxyethoxy)ethyl)-5-methyl-3-(2-methyl-1-oxo-1-(pyrrolidin-1-yl)propan-2-yl)-6-(2H-1,2,3-triazol-2-yl)thieno[2,3-d]pyrimidine-2,4(1H,3H)-dione] | 5 to 10 | 5 to 10 |  |  |  |  |  |  |  |  |  |  |  |  |  |  |  |  | 0.4 to 1 | 0.3 to 1 | MIC ([2]; Table 3a, ATCC 6258, 3 replicates, MIC recorded at 48 h, read-out: MIC, C. krusei ATCC 6258): 1.1 to 2 µg/mL (≈ 1.83 to 3.33 µM); MIC ([2]; Table 3b (additional results), ATCC 6258, 3 replicates, MIC recorded at 48 h, read-out: MIC, C. krusei ATCC 6258): 1.01 to 2 µg/mL (≈ 1.68 to 3.33 µM); MIC ([3]; Table 3a, ATCC 22019, 3 replicates, MIC recorded at 48 h, read-out: MIC, C. parapsilosis ATCC 22019): 2.1 to 4 µg/mL (≈ 3.5 to 6.66 µM); MIC ([3]; Table 3b (additional results), ATCC 22019, 3 replicates, MIC recorded at 48 h, read-out: MIC, C. parapsilosis ATCC 22019): 1.01 to 2 µg/mL (≈ 1.68 to 3.33 µM); IC90 ([4]; Botrtyis cinerea, growth inhibition at 48 hours vs 2% DMSO control, read-out: Concentration at 90% Inhibition Bc): 2 µg/mL (≈ 3.33 µM); IC90 ([4]; Botrtyis cinerea, growth inhibition vs 2% DMSO control at 48 hours, read-out: Concentration at 90% Inhibition Bc): 2 µg/mL (≈ 3.33 µM); IC90 [5, 17]: 0.4 µg/mL (≈ 0.666 µM); IC90 ([5]; Fusarium moniliforme, growth inhibition vs 2% DMSO control at 48 hours): 0.4 µg/mL (≈ 0.666 µM); IC90 ([6]; growth inhibition at 48 hours vs 2% DMSO control, read-out: Concentration at 90% Inhibition Fv): 0.4 µg/mL (≈ 0.666 µM); IC90 ([6]; growth inhibition vs 2% DMSO control at 48 hours, read-out: Concentration at 90% Inhibition Fv): 0.4 µg/mL (≈ 0.666 µM); IC90 ([7]; growth inhibition at 48 hours vs 2% DMSO control, read-out: Concentration at 90% Inhibition Pc): > 50 µg/mL; IC90 ([7]; growth inhibition vs 2% DMSO control at 48 hours, read-out: Concentration at 90% Inhibition Pc): > 50 µg/mL; IC90 ([8]; mycelial plugs, growth inhibition at 48 hours vs 2% DMSO control, read-out: Concentration at 90% Inhibition Rs): 2 µg/mL (≈ 3.33 µM); IC90 ([8]; mycelial plugs, growth inhibition vs 2% DMSO control at 48 hours, read-out: Concentration at 90% Inhibition Rs): 10 µg/mL (≈ 16.6 µM); IC90 ([9]; Septoria tritici, growth inhibition at 48 hours vs 2% DMSO control, read-out: Concentration at 90% Inhibition St): > 50 µg/mL; IC90 ([9]; Septoria tritici, growth inhibition vs 2% DMSO control at 48 hours, read-out: Concentration at 90% Inhibition St): > 50 µg/mL
COc1ccc(F)cc1[C@H](Cn1c(=O)n(C(C)(C)C(=O)NC(C)C)c(=O)c2c(C)c(-n3nccn3)sc21)OC[C@@H](C)O [Compound I-45, 2-(1-((R)-2-(5-fluoro-2-methoxyphenyl)-2-((R)-2-hydroxypropoxy)ethyl)-5-methyl-2,4-dioxo-6-(2H-1,2,3-triazol-2-yl)-1,4-dihydro-thieno[2,3-d]pyrimidin-3(2H)-yl)-N-isopropyl-2-methylpropanamide] | 10 to 40 | 10 to 40 | 0.25 to 1 (≈ 0.415 to 1.66 µM) | 1.01 to 2 (≈ 1.68 to 3.32 µM) | 0.25 to 1 (≈ 0.415 to 1.66 µM) | 1.01 to 2 (≈ 1.68 to 3.32 µM) | 2 (≈ 3.32 µM) | 2 (≈ 3.32 µM) | AA (compound concentration of 0.08 ppm at 90% inhibition of fungal pathogens) | 0.08 (≈ 0.133 µM) | 0.4 (≈ 0.664 µM) | 0.4 (≈ 0.664 µM) | 2 (≈ 3.32 µM) | 10 (≈ 16.6 µM) | 0.08 (≈ 0.133 µM) | 0.08 (≈ 0.133 µM) | 2 (≈ 3.32 µM) | 10 (≈ 16.6 µM) | 1 to 5 | 1 to 5 | 
